Measured values taken from US4663329A, “Thienopyridinone derivatives and anti-bacterial compositions containing them” (Sanofi, priority 1984, dated 1987).
Where two headings read alike, the source gives them in different places.

Experiments:
Format in all cases: cell-based
[1] = tested on: Providencia stuartii 5158; assay: In vitro antibacterial activity, MIC, Providencia stuartii 5158
Experimental: (§1) Tests carried out in vitro in accordance with the experimental procedure described hereunder have provided evidence of the antibacterial activity in question.
(§2) For this purpose, the M.I.C. were determined i.e. the minimal inhibiting concentrations of the compound under study acting on the growth of the bacteria at 37° C.
(§3) The serial dilutions method was used utilizing a MUELLER HINTON gelose medium at pH=7.4 and a bacterial inoculum of 10^4 units forming colonies. This inoculum was applied to the gelose by means of a multiple sowing device.
(§4) A scale of concentrations ranging from 100 to 0.05 μg/ml of compound to be studied was used starting from mother solutions titrating 1000 μg/ml, all the subsequent dilutions being effected in distilled water.

Proteus morganii 1510 = assay: In vitro antibacterial activity, MIC, Proteus morganii 1510; conditions: Morganella morganii
Experimental: as §1, §2, §3, §4

[2] = tested on: Proteus mirabilis ATCC 21100; assay: In vitro antibacterial activity, MIC, Proteus mirabilis ATCC 21100; conditions: ATCC21100; Proteus mirabilis ATCC 21100; 37° C., pH=7.4, inoculum 10^4; read-out: MIC
Experimental: as §1, §2, §3, §4

[3] = tested on: Enterobacter cloacae P 99; assay: In vitro antibacterial activity, MIC, Enterobacter cloacae P 99; conditions: Enterobacter cloacae, P99
Experimental: as §1, §2, §3, §4

[4] = tested on: Acinetobacter calcoaceticus C 1733; assay: In vitro antibacterial activity, MIC, Acinetobacter calcoaceticus C 1733; conditions: C1733, 37° C., pH=7.4, inoculum 10^4, read-out: MIC
Experimental: as §1, §2, §3, §4

Shigella sonnei R 018 = assay: In vitro antibacterial activity, MIC, Shigella sonnei R 018; conditions: R018, 37° C., pH=7.4, inoculum 10^4
Experimental: as §1, §2, §3, §4

[5] = tested on: Klebsiella pneumoniae R 30; assay: In vitro antibacterial activity, MIC, Klebsiella pneumoniae R 30; conditions: R30
Experimental: as §1, §2, §3, §4

[6] = tested on: Pseudomonas aeruginosa 8203; assay: In vitro antibacterial activity, MIC, Pseudomonas aeruginosa 8203; conditions: 37° C., pH=7.4, inoculum 10^4, read-out: MIC
Experimental: as §1, §2, §3, §4

[7] = tested on: Proteus vulgaris RL 99 bis; assay: In vitro antibacterial activity, MIC, Proteus vulgaris RL 99 bis; conditions: RL99BIS
Experimental: as §1, §2, §3, §4

[8] = tested on: Enterobacter hafniae RO 46; assay: In vitro antibacterial activity, MIC, Enterobacter hafniae RO 46; conditions: Hafnia alvei, RO46
Experimental: as §1, §2, §3, §4

[9] = tested on: Escherichia coli 54127 IP; assay: In vitro antibacterial activity, MIC, Escherichia coli 54127 IP
Experimental: as §1, §2, §3, §4

[10] = tested on: Salmonella typhimurium A 222 IP; assay: In vitro antibacterial activity, MIC, Salmonella typhimurium A 222 IP; conditions: Salmonella enterica
Experimental: as §1, §2, §3, §4

[11] = tested on: Bacillus subtilis ATCC 6633; assay: In vitro antibacterial activity, MIC, Bacillus subtilis ATCC 6633; conditions: ATCC6633; Bacillus subtilis ATCC 6633; 37° C., pH=7.4, inoculum 10^4; read-out: MIC
Experimental: as §1, §2, §3, §4

[12] = tested on: Bordetella bronchiseptica ATCC 4617; assay: In vitro antibacterial activity, MIC, Bordetella bronchiseptica ATCC 4617; conditions: ATCC4617, 37° C., pH=7.4, inoculum 10^4, read-out: MIC
Experimental: as §1, §2, §3, §4

[13] = tested on: Citrobacter freundii GN 346; assay: In vitro antibacterial activity, MIC, Citrobacter freundii GN 346; conditions: GN346
Experimental: as §1, §2, §3, §4

[14] = tested on: Serratia liquefaciens 376; assay: In vitro antibacterial activity, MIC, Serratia liquefaciens 376; conditions: 37° C., pH=7.4, inoculum 10^4, read-out: MIC
Experimental: as §1, §2, §3, §4

[15] = tested on: Streptococcus faecalis 5855 IP; assay: In vitro antibacterial activity, MIC, Streptococcus faecalis 5855 IP; conditions: Enterococcus faecalis, 37° C., pH=7.4, inoculum 10^4, read-out: MIC
Experimental: as §1, §2, §3, §4

[16] = tested on: Klebsiella pneumoniae ATCC 10031; assay: In vitro antibacterial activity, MIC, Klebsiella pneumoniae ATCC 10031; conditions: ATCC10031; Klebsiella pneumoniae ATCC 10031; 37° C., pH=7.4, inoculum 10^4; read-out: MIC
Experimental: as §1, §2, §3, §4

[17] = tested on: Staphylococcus aureus 53154 IP; assay: In vitro antibacterial activity, MIC, Staphylococcus aureus 53154 IP
Experimental: as §1, §2, §3, §4

[18] = tested on: Escherichia coli SOL RL 90; assay: In vitro antibacterial activity, MIC, Escherichia coli SOL RL 90; conditions: SOLRL90
Experimental: as §1, §2, §3, §4

[19] = tested on: Salmonella typhi ATCC 6539; assay: In vitro antibacterial activity, MIC, Salmonella typhi ATCC 6539; conditions: Salmonella enterica
Experimental: as §1, §2, §3, §4

[20] = Proteus vulgaris RL 99 bis, 37° C., pH=7.4, inoculum 10^4, read-out: MIC
[21] = Escherichia coli 54127 IP, 37° C., pH=7.4, inoculum 10^4, read-out: MIC
[22] = Providencia stuartii 5158, 37° C., pH=7.4, inoculum 10^4, read-out: MIC
[23] = Klebsiella pneumoniae R 30, 37° C., pH=7.4, inoculum 10^4, read-out: MIC
[24] = Salmonella typhimurium A 222 IP, 37° C., pH=7.4, inoculum 10^4, read-out: MIC
[25] = Citrobacter freundii GN 346, 37° C., pH=7.4, inoculum 10^4, read-out: MIC
[26] = Staphylococcus aureus 53154 IP, 37° C., pH=7.4, inoculum 10^4, read-out: MIC
[27] = Escherichia coli SOL RL 90, 37° C., pH=7.4, inoculum 10^4, read-out: MIC

Measured: MIC

CCn1cc(C(=O)O)c(=O)c2cc(C=NOC)sc21 [Compound D, 4,7-Dihydro-7-ethyl-2-methoxyiminomethyl-4-oxo-thieno[2,3-b]pyridine-5-carboxylic acid]
1.56 µg/mL: [3] | Shigella sonnei R 018 | [8] | [17]; Staphylococcus aureus, 53154IP
3.12 µg/mL: [1]; Providencia stuartii, 5158 | Proteus morganii 1510; 1510 | [5]; Klebsiella pneumoniae | [10]; TYPHIMURIUM | [13]; Citrobacter freundii | [18]; Escherichia coli | [19]
0.2 µg/mL: [16]
50 µg/mL: [14]
12.5 µg/mL: [12]
0.78 µg/mL: [2] | [7]; [20] | [9]; [21] | [11]
> 100 µg/mL: [4] | [6] | [15]

CCn1cc(C(=O)O)c(=O)c2cc(C=Nc3ccccc3)sc21 [Compound J, 4,7-Dihydro-7-ethyl-2-N-phenyl-iminomethyl-4-oxo-thieno[2,3-b]pyridine-5-carboxylic acid]
25 µg/mL: [5]; [23] | [19]
> 100 µg/mL: [4] | [6] | [12] | [14] | [15] | [17]; [26]
12.5 µg/mL: [1]; [22] | [2] | [13]; [25]
6.25 µg/mL: [10]; [24] | [18]; [27]
50 µg/mL: [3] | [16]
3.12 µg/mL: Proteus morganii 1510; 1510 | Shigella sonnei R 018 | [7]; Proteus vulgaris | [8] | [9]; Escherichia coli, 54127IP

CCn1cc(C(=O)O)c(=O)c2cc(C(=O)O)sc21 [Compound X, 4,7-dihydro-7-ethyl-2-carboxy-4-oxo-thieno[2,3-b]pyridine-5-carboxylic acid, reference compound]
> 100 µg/mL: [1]; [22] | Proteus morganii 1510; Proteus morganii 1510, 37° C., pH=7.4, inoculum 10^4, read-out: MIC | [2] | [3] | [4] | Shigella sonnei R 018 | [5]; [23] | [6] | [7]; [20] | [8]; Enterobacter hafniae RO 46, 37° C., pH=7.4, inoculum 10^4, read-out: MIC | [9]; [21] | [10]; [24] | [12] | [13]; [25] | [14] | [15] | [16] | [17]; [26] | [18]; [27] | [19]

CCn1cc(C(=O)O)c(=O)c2cc([N+](=O)[O-])sc21 [Compound Y, 4,7-dihydro-7-ethyl-2-nitro-4-oxo-thieno[2,3-b]pyridine-5-carboxylic acid, reference compound]
25 µg/mL: [5]; [23] | [19]
6.25 µg/mL: [10]; [24] | [18]; [27]
50 µg/mL: [3] | [16]
> 100 µg/mL: [4] | [6] | [12] | [14] | [15] | [17]; [26]
3.12 µg/mL: Proteus morganii 1510; 1510 | Shigella sonnei R 018 | [7]; Proteus vulgaris | [8] | [9]; Escherichia coli, 54127IP
12.5 µg/mL: [1]; [22] | [2] | [13]; [25]
